Measurements published in ChEMBL document CHEMBL3272053, “(exo, exo)-2-Aryltropane-3-carboxylic esters, hypoglycemic agents with accompanying analgesic activity” (J Med Chem, 1978).
Active and inactive are the calls of the source. The calls are words filed in the database; no cut-off is given here.

Legend:
Rattus norvegicus [1] = assay: Hypoglycemic activity in Sprague-Dawley rat assessed as reduction of blood glucose level at 87 mg/kg, po by glucagon-impaired glucose disposal test relative to control; format: functional; design: scale not given: the % may be the effect or the level left
Rattus norvegicus [2] = assay: Toxicity in Sprague-Dawley rat assessed as convulsion at 120 mg/kg, sc; format: organism-based; design: dose 120 mg/kg, route subcutaneous; conditions: in vivo
Rattus norvegicus [3] = assay: Narcotic antagonist activity in fed Sprague-Dawley rat assessed as decrease in phenazocine-induced analgesic activity at 80 mg/kg, sc; format: functional
Rattus norvegicus [4] = assay: Toxicity in Sprague-Dawley rat assessed as tremor at 30 mg/kg, sc; format: organism-based; design: dose 30 mg/kg, route subcutaneous; conditions: in vivo
Rattus norvegicus [5] = assay: Narcotic antagonist activity in fed Sprague-Dawley rat assessed as decrease in phenazocine-induced analgesic activity at 1 mg/kg, sc; format: functional, organism-based; design: dose 1 mg/kg
Mus musculus [6] = assay: Analgesic activity in sc dosed Swiss-Webster mouse assessed as reduction of acetylcholine-induced writhing; format: functional; conditions: Mus musculus, Swiss-Webster, sc; read-out: ED50
Rattus norvegicus [7] = assay: Narcotic analgesic activity in fed Sprague-Dawley rat at 120 mg/kg, sc measured at 30 mins by D'Amour-Smith tail-flick test; format: functional; conditions: route subcutaneous
Mus musculus [8] = assay: Toxicity in Swiss-Webster mouse assessed as hyperactivity at 75 mg/kg, sc; format: organism-based; design: dose 75 mg/kg, route subcutaneous; conditions: in vivo
Rattus norvegicus [9] = assay: Hypoglycemic activity in Sprague-Dawley rat assessed as reduction of blood glucose level at 88 mg/kg, po by glucagon-impaired glucose disposal test relative to control; format: functional; design: scale not given: the % may be the effect or the level left
Rattus norvegicus [10] = assay: Toxicity in Sprague-Dawley rat assessed as tremor at 120 mg/kg, sc; format: organism-based; design: dose 120 mg/kg, route subcutaneous; conditions: in vivo
Rattus norvegicus [11] = assay: Toxicity in Sprague-Dawley rat assessed as tremor at 240 mg/kg, po; format: organism-based; design: dose 240 mg/kg, route oral; conditions: in vivo
Rattus norvegicus [12] = assay: Narcotic analgesic activity in fasted Sprague-Dawley rat at 240 mg/kg, po measured at 60 mins by D'Amour-Smith tail-flick test relative to control; format: functional
Rattus norvegicus [13] = assay: Toxicity in Sprague-Dawley rat assessed as rigidity at 240 mg/kg, po; format: organism-based; design: dose 240 mg/kg, route oral; conditions: in vivo
Mus musculus [14] = assay: Analgesic activity in Swiss-Webster mouse assessed as reduction of acetylcholine-induced writhing at 50 mg/kg, po relative to control; format: functional; design: scale not given: the % may be the effect or the level left
Rattus norvegicus [15] = assay: Narcotic analgesic activity in fasted Sprague-Dawley rat at 240 mg/kg, po measured at 15 mins by D'Amour-Smith tail-flick test relative to control; format: functional
Rattus norvegicus [16] = assay: Hypoglycemic activity in glucose loaded Sprague-Dawley rat assessed as reduction of blood glucose level at 94 mg/kg, po relative to control; format: functional; design: scale not given: the % may be the effect or the level left
Mus musculus [17] = assay: Analgesic activity in po dosed Swiss-Webster mouse assessed as reduction of acetylcholine-induced writhing; format: functional
Rattus norvegicus [18] = assay: Hypoglycemic activity in glucose/glycogen loaded Sprague-Dawley rat assessed as reduction of blood glucose level at 87 mg/kg, po; format: functional, organism-based; design: dose 87 mg/kg
Rattus norvegicus [19] = assay: Analgesic activity in po dosed rat assessed as reduction of intraarterial bradykinin-induced pain response measured up to 120 mins; format: functional; conditions: 2 h
Rattus norvegicus [20] = assay: Narcotic analgesic activity in po dosed fasted Sprague-Dawley rat measured at 60 mins by D'Amour-Smith tail-flick test; format: functional; conditions: Rattus norvegicus, Sprague-Dawley, Tail, po, 1 h; read-out: ED50

Which Activity (Rattus norvegicus [1]) does the source give for `CC(=O)[C@H]1C[C@H]2CC[C@H]([C@H]1c1ccccc1)N2C.Cl` here?
The Activity was 32%.

What about the Activity (Rattus norvegicus [2]) of the same compound?
The Activity was “Toxic”.

What about the Activity (Rattus norvegicus [3]) of the same compound?
The Activity was “Active”.

What about the Activity (Rattus norvegicus [4]) of the same compound?
Its Activity is “Toxic”.

What about the Activity (Rattus norvegicus [5]) of the same compound?
Its Activity is “Active”.

What about the ED50 (Mus musculus [6]) of the same compound?
Its ED50 is 7 mg/kg.

And the Activity (Rattus norvegicus [7])?
Its Activity is less than 20%.

For `COC(=O)[C@H]1C[C@H]2CC[C@H]([C@H]1Cc1ccccc1)N2C.Cl`, which Activity (Mus musculus [8]) is on record?
Its Activity is “Toxic”.

And the Activity (Rattus norvegicus [9])?
Its Activity is 21%.

And the Activity (Rattus norvegicus [10])?
Its Activity is “Toxic”.

And the ED50 (Mus musculus [6])?
Its ED50 is 5.8 mg/kg.

What about the Activity (Rattus norvegicus [7]) of the same compound?
Its Activity is less than 20%.

How did the Activity (Rattus norvegicus [11]) turn out when `COC(=O)[C@H]1C[C@H]2CC[C@@H]3[C@H]1c1sccc1C[N+]23[O-]` was run?
The Activity was “Toxic”.

What about the Activity (Rattus norvegicus [12]) of the same compound?
Its Activity is 14%.

And the Activity (Rattus norvegicus [13])?
The Activity was “Toxic”.

What about the Activity (Mus musculus [14]) of the same compound?
Its Activity is 67%.

And the Activity (Rattus norvegicus [15])?
The Activity was 41%.

What about the Activity (Rattus norvegicus [16]) of the same compound?
Its Activity is less than 20%.

Which results are given for `COC(=O)[C@H]1CCCN(C)[C@H]1c1cccs1` (relative stereo)?
ED50 (Mus musculus [17]): 11 mg/kg; Activity (Rattus norvegicus [18]): inactive; ED50 (Rattus norvegicus [19]): 111 mg/kg; ED50 (Mus musculus [6]): 3.8 mg/kg; ED50 (Rattus norvegicus [20]): 112 mg/kg
